Columns and labels:
Experiment in all cases: B1 Post-emergence efficacy Test 1
Format in all cases: in vivo
Conditions in all cases: post-emergence application, 1000 g/ha, evaluated after 13 days
[1] = tested on: Amaranthus retoflexus (AMARE)
Procedure: (§1) Seeds of a variety of test species are sown in standard soil in pots:—Solanum nigrum (SOLNI), Amaranthus retoflexus (AMARE), Setaria faberi (SETFA), Alopecurus myosuroides (ALOMY), Echinochloa crus-galli (ECHCG), Ipomoea hederacea (IPOHE), Lolium perenne (LOLPE). After 8 days cultivation (post-emergence) under controlled conditions in a glasshouse (at 24/16° C., day/night; 14 hours light; 65% humidity), the plants are sprayed with an aqueous spray solution derived from the formulation of the technical active ingredient in acetone/water (50:50) solution containing 0.5% Tween 20 (polyoxyethylene sorbitan monolaurate, CAS RN 9005-64-5). Compounds are applied at 1000 g/ha. The test plants are then grown in a glasshouse under controlled conditions in a glasshouse (at 24/16° C., day/night; 14 hours light; 65% humidity) and watered twice daily. After 13 days, the test is evaluated for the percentage damage caused to the plant. The biological activities are assessed on a five point scale (5=80-100%; 4=60-79%; 3=40-59%; 2=20-39%; 1=0-19%). A blank value in the table is indicative that the compound was not tested on that species.

[2] = tested on: Echinochloa crus-galli (ECHCG)
Procedure: as §1

[3] = tested on: Ipomoea hederacea (IPOHE)
Procedure: as §1

Lolium perenne (LOLPE) = tested on: Lolium perenne (LOLPE)
Procedure: as §1

Setaria faberi (SETFA) = tested on: Setaria faberi (SETFA)
Procedure: as §1

Solanum nigrum (SOLNI) = tested on: Solanum nigrum (SOLNI)
Procedure: as §1

| SMILES | percentage damage caused to the plant, five point scale, AMARE [1] | percentage damage caused to the plant, five point scale, ECHCG [2] | percentage damage caused to the plant, five point scale, IPOHE [3] | percentage damage caused to the plant, five point scale, LOLPE (Lolium perenne (LOLPE)) | percentage damage caused to the plant, five point scale, SETFA (Setaria faberi (SETFA)) | percentage damage caused to the plant, five point scale, SOLNI (Solanum nigrum (SOLNI)) |
| --- | --- | --- | --- | --- | --- | --- |
| Cc1nn(C)c(=O)c(-c2c(F)ccc(Cl)c2CCc2ccc(C(F)(F)F)cc2)c1O [Compound 1.018] | 5 (5=80-100%) | 5 (5=80-100%) | 5 (5=80-100%) | 5 (5=80-100%) | 5 (5=80-100%) | 5 (5=80-100%) |
| Cc1nn(C)c(=O)c(-c2c(F)ccc(Cl)c2CCc2ccc(Cl)cc2)c1O [Compound 1.012] | 5 (5=80-100%) | 5 (5=80-100%) | 5 (5=80-100%) | 5 (5=80-100%) | 5 (5=80-100%) | 5 (5=80-100%) |
| Cc1ccc(CCc2c(Cl)ccc(F)c2-c2c(OC(=O)C(C)C)c(C)nn(C)c2=O)cc1 [Compound 1.149] | 5 (5=80-100%) | 5 (5=80-100%) | 5 (5=80-100%) | 5 (5=80-100%) | 5 (5=80-100%) | 5 (5=80-100%) |
| Cc1nn(C)c(=O)c(-c2c(F)ccc(Cl)c2CCc2ccc(C(F)(F)F)cc2)c1OC(=O)C(C)C [Compound 1.095] | 5 (5=80-100%) | 5 (5=80-100%) | 5 (5=80-100%) | 5 (5=80-100%) | – | 5 (5=80-100%) |
| Cc1nn(C)c(=O)c(-c2c(F)ccc(Cl)c2CCc2ccccc2)c1O [Compound 1.001] | 5 (5=80-100%) | 5 (5=80-100%) | 5 (5=80-100%) | 5 (5=80-100%) | 5 (5=80-100%) | 5 (5=80-100%) |
| Cc1nn(C)c(=O)c(-c2c(F)ccc(Cl)c2CCc2cccnc2)c1O [Compound 1.054] | 5 (5=80-100%) | 5 (5=80-100%) | 5 (5=80-100%) | 5 (5=80-100%) | 5 (5=80-100%) | 5 (5=80-100%) |
| Cc1nn(C)c(=O)c(-c2c(F)ccc(Cl)c2CCc2ccc(F)c(F)c2)c1O [Compound 1.060] | 5 (5=80-100%) | 5 (5=80-100%) | 5 (5=80-100%) | 5 (5=80-100%) | 5 (5=80-100%) | 5 (5=80-100%) |
| Cc1nn(C)c(=O)c(-c2c(F)ccc(Cl)c2/C=C/c2ccccc2)c1O [Compound 1.002] | 4 (4=60-79%) | 4 (4=60-79%) | 5 (5=80-100%) | 4 (4=60-79%) | 3 (3=40-59%) | 5 (5=80-100%) |

Reference: patent US12162840B2, “Herbicidal compositions” (SYNGENTA PARTICIPATIONS AG, priority 2018, dated 2024)
